“Also recorded” adds a separate entry of the source.
Key:
Ngb mRNA = Ngb mRNA expression in HN33 cells (RT-PCR, quantitative RT-PCR, Northern blot); assay type: cell-based, mouse
Protocol: (§1) HN33 cells were cultured as described (Lee et al. (1990) J Neurosci. 10: 1779-1787; Shi et al. (1998) J Neurochem., 70:1035-1044; Jin et al. (2000) Proc Nati Acad Sci USA., 97:10242-10247). Cells were plated at 4×10^5 cells/well onto uncoated, 6-well plastic culture dishes in Dulbecco's modified Eagle's medium containing 10% (v/v) fetal bovine serum, 100 units/ml of penicillin and 100 μg/ml of streptomycin, and maintained at 37° C. in humidified 95% air/5% CO2. Cells were treated with hemin (typically 50 μM) or 8-Br-cGMP (10 μM) for up to 3 days, without daily replacement. To suppress sGC or PKG activity, cells were pretreated for 1 hour with inhibitors before adding other reagents.
RT-PCR and Northern blot analyses were carried out as described previously (Zhu and Zhang (1999) Biochem Biophys Res Commun., 258:87-93). Briefly, total RNA from treated and untreated cells was extracted using a RNeasy Mini Kit (QIAGEN Operon, Valencia, Calif.), and DNA-free total RNA (2 μg per sample) was reverse-transcribed into first-strand cDNA using the Reverse Transcription System and Oligo-dT12-18 (GIBCO-BRL, Rockville, Md.) (Id.). Sequences of the primers used for PCR amplification were: Ngb forward, 5′ CTCTGGAACATGGCACTGTC 3′ (nt 135-154, SEQ ID NO:7); Ngb reverse, 5′ GCACTGGCTCGTCTCTTACT 3′ (nt 547-528, SEQ ID NO:8); β-actin forward, 5′ CACAGGCATTGTGATGGACTC 3′ (nt 524-544, SEQ ID NO:9); β-actin reverse, 5′ GCTCAGGAGGAGCAATGATCT 3′ (nt 582-563, (SEQ ID NO:10). Primers were designed based on the published sequences of these genes and were synth esized by QIAGEN Operon. All PCR primer pairs gave rise to only one discrete band of the expected size. PCR reactions were carried out in a total volume of 25 μl containing 2 μl cDNA, 1×PCR buffer (Boehringer Mannheim, Mannheim, FRG), 200 μM dNTPs, 0.6 U Taq DNA polymerase (Boehringer Mannheim), and 0.2 μM primers. The optimal conditions for amplification (temperature and cycle number) were determined experimentally according to previously published procedures (Id.). Different ratios of Ngb to b-actin primer pairs were tested to ensure that Ngb and b-actin were amplified with similar efficiency, and a kinetic study was undertaken to establish the number of cycles sufficient to detect both Ngb and b-actin without reaching saturation for either. The parameters chosen for PCR amplification were 95° C. for 1 minute, 57° C. for 45 seconds, 72° C. for 1 minute for 25-30 cycles, and a final incubation at 72° C. for 10 minutes. PCR products were separated on 1.2% agarose gels, visualized by ethidium bromide staining, and quantified using a ChemiImage System (Alpha Innotech Corporation, San Leandro, Calif.).
For Northern blotting, 15 μg of total RNA from each sample was fractionated on 1% formaldehyde/agarose gels and transferred to Hybond-N nylon membranes (Amersham Pharmacia, Piscataway, N.J.). Filters were hybridized with probes for Ngb MRNA, and β-actin mRNA at 68° C. in hybridization buffer (Clontech, Palo Alto, Calif.). ^32P-radiolabeled DNA probes were synthesized using cDNA obtained from RT-PCR amplification.
Quantitative RT-PCR analysis was carried out as described previously.8 PCR reactions were carried out in a total volume of 25 μl containing 1 μI cDNA, 1×PCR buffer (Boehringer Mannheim), 200 μM dNTPs, 0.6 U Taq DNA polymerase (Boehringer Mannheim), two pairs of primers (one pair for the Ngb gene, another for the b-actin gene used as an internal control). The optimal conditions for amplification (the proportion between the two pairs of primers, temperatures, and cycle numbers) were determined experimentally according to previously established procedures.8 PCR products were separated on 1.2% agarose gels, visualized by ethidium bromide staining, and quantified using a ChemiImage System (Alpha Innotech Corporation).

cGMP = experiment: Intracellular cGMP content in HN33 cells (enzyme immunoassay); assay type: cell-based, mouse
Protocol: HN33 cells (4×10^4 cells in 100 μl) were plated on 96-well microtiter plates and treated with 50 μM hemin for 2, 8, 16, or 24 hours. Intracellular cGMP concentrations were measured in quadruplicate using a cGMP enzyme-immunoassay system (Amersham Pharmacia).

[1] = system: vascular endothelial growth factor; conditions: aortic smooth muscle cells; cited from earlier work
[2] = system: transient forebrain ischemia; conditions: rats, direct administration after transient forebrain ischemia; cited from earlier work
Ngb protein = Ngb protein expression in HN33 cells (Western blot); assay type: cell-based, mouse
Protocol: as §1
Cells were washed twice in PBS, and whole-cell extracts were prepared by adding 10 volumes of 1× sample buffer containing 2% SDS, 100 mM dithiothreitol, 60 mM Tris (pH 6.8) and 10% glycerol, and boiled for 5 minutes. Protein concentrations were determined using Bradford Protein Assays (Bio-Rad, Hercules, Calif.); 30 μg of protein was analyzed by 12% or 15% SDS-PAGE and transferred to Immuno-Blot PVDF membranes (Bio-Rad). Membranes were probed with affinity-purified anti-Ngb antibody, which was produced by immunizing with a synthetic peptide corresponding to amino-acids 35-50 (NH2-CLSSPEFLDHIRKVML-COOH, (SEQ ID NO:11) of mouse Ngb (Sun et aL (2001 Proc Natl Acad Sci USA. 98:15306-15311),and the signal was detected with Boehringer Mannheim chemiluminescence blotting kits. Differences in protein expression on Western blots were quantified using a GS-710 calibrated imaging densitometer and Quantity One software (Bio-Rad).

HN33 cells = experiment: HN33 cell viability (MTT); assay type: cell-based, mouse
Protocol: Cell viability was assessed by measuring formazan produced by the reduction of 3-(4,5-dimethylthiazol-2-yl)-2,5-diphenyl tetrazolium bromide (MTT) in viable cells.3 Cells were incubated with 5 mg/ml of MTT (Sigma) at 37° C. for 2 hours. The medium was removed and cells were solubilized with dimethylsufoxide and transferred to 96-well plates. The formazan reduction product was detected by measuring absorbance at 570 nm in a Cytofluor Series 4000 multi-well plate-reader (PerSeptive Biosystems, Framingham, Mass.). Results were expressed as a percentage of control absorbance, measured in normoxic cultures, after subtracting background absorbance (measured in freeze-thawed cultures) from all values.

K562 cells = conditions: 50 μM hemin for 2-3 days; cited from earlier work

Q: Which “maximal increase in neuroglobin mRNA level” value (Ngb mRNA; 50 μM hemin, 8-24 hours) does the source give for hemin here?
A: about 4 fold

Q: And the “Ngb mRNA levels (Northern blot)” value (Ngb mRNA; HN33 cells, 50 μM hemin for 16 hours)?
A: about 4 fold

Q: What about the “Maximal induction of Ngb mRNA expression (RT-PCR, normalized for β-actin)” value (Ngb mRNA; HN33 cells, hemin 24 h, maximal at 25-50 μM) of the same substance?
A: 4 fold

Q: And the “cGMP levels by 24 hours” value (cGMP; 50 μM hemin)?
A: returned to near basal levels

Q: What about the “increase in cGMP levels” value (cGMP; 50 μM hemin for 2 to 12 hours) of the same substance?
A: 8- to 15 fold

Q: And the “increase in cGMP levels (summary)” value (cGMP; hemin)?
A: > 10 fold

Q: And the “effect on hypoxic induction of vascular endothelial growth factor” value [1]?
A: suppress

Q: What about the “neuroprotection: viable neurons in cerebral cortex and striatum” value [2] of the same substance?
A: significantly increases the number of viable neurons

Q: And the “maximal increase in neuroglobin protein level” value (Ngb protein; 50 μM hemin, 8-24 hours)?
A: about 4 fold

Q: What about the “persistence of Ngb protein induction” value (Ngb protein; HN33 cells, 50 μM hemin) of the same substance?
A: at least 3 days

Q: And the “time at which induction of Ngb protein was evident” value (Ngb protein; HN33 cells, 50 μM hemin)?
A: 2 h

Q: What about the “induction of Ngb protein” value (Ngb protein; HN33 cells, 50 μM hemin for up to 3 days) of the same substance?
A: about 4 times basal levels of expression

Q: What about the “difference in viability relative to control” value (HN33 cells; 100 μM hemin, 24 hours, HN33 cells) of the same substance?
A: significant (P<0.05) difference in viability

Q: And the “reduction of cell viability” value (HN33 cells; 100 μM hemin, HN33 cells, MTT)?
A: ~15%

Q: What about the “effect on HN33 cell viability” value (HN33 cells; hemin 0-50 μM for 24 h, or 50 μM for up to 3 days, MTT) of the same substance?
A: no effect on cell viability; also recorded: does not alter HN33 cell viability

Q: And the “cells producing a high level of hemoglobin” value (K562 cells)?
A: more than 50%

From patent US20050170345A1, “Neuroglobin is up-regulated by and protects neurons from hypoxic-ischemic injury” (priority 2001, published 2005)
